Data as given in paper PMC10961089, “Epidermal growth factor receptor inhibition potentiates chemotherapeutics‐mediated sensitization of metastatic breast cancer stem cells” (Cancer Reports, 2024).

How the values were obtained:
[1] = test system: CD44, p‐EGFR, p‐JNK, p‐p38 in tumor tissue; assay: Immunohistochemical analysis of tumor tissue (colocalization with GFP, Pearson's correlation coefficient); format: in vivo, C57BL/6 mice
Description: (§1) Animal studies have been carried out with the prior approval of the Institutional Animal Ethics Committee (IICT/IAEC/025/2023). C57BL/6 female mice of age 6–8 weeks (N = 35) were initially immunosuppressed with cyclophosphamide (50 mg/kg of body weight, i.p) on alternate days for 2 weeks. For generating a preclinical orthotopic xenograft tumor model, 2 × 10^6 GFP expressing sorted stable CD24^+‐breast cancer cells and CD24^−/CD44^+‐breast CSCs were orthotopically xeno‐transplanted subcutaneously at the fourth mammary fat pad of immune‐suppressed mice (n = 5/group). Subsequently, intratumoral administration of Doxorubicin at a low dose (2.5 mg/kg of body weight), high dose (10 mg/kg of body weight), and/or combinatorial treatment of the potent EGFR inhibitor, compound 1e (50 mg/kg of body weight) or the commercial EGFR inhibitor, PD153035 (50 mg/kg of body weight) with a low dose of doxorubicin was performed to the palpable tumors of breast CSCs at day‐3 post‐transplantation.
Immunohistochemical analysis was performed by immunostaining the tissue serial sections with primary antibodies against GFP, CD44, p‐EGFR, p‐JNK, and p‐p38 (CST, USA) followed by alexafluor‐488/555 conjugated secondary antibodies (R&D systems, USA) and mounting medium containing DAPI.[28], [29] Images were captured using a confocal microscope (Olympus FV10i, Tokyo, Japan). Pearson's correlation coefficient was utilized to determine the co‐localization of GFP/CD44, GFP/p‐EGFR, GFP/p‐JNK, and GFP/p‐p38 (Table. ST3).

[2] = test system: BAX, BCL‐2, cytochrome‐C in MDA‐MB‐231 cells; assay: Immunoblot analysis of apoptotic markers; format: cell-based, human; settings: MDA-MB-231, doxorubicin 0.01 μM + compound 5 μM
Description: MDA‐MB‐231 cells were subjected to the treatment of doxorubicin (0.01 μM) in the absence/presence of the selected potent compounds—1c, 1e, 1g, 1h, 1j, and 1k at 5 μM concentration or a standard EGFR inhibitor, PD153035 (10 μM) for 48 h. Separately, TNBC cells—MDA‐MB‐231 were also treated with doxorubicin (0.01 and/or 0.1 μM) in the absence/presence of potent EGFR inhibitor/compound, 1e at 5 μM concentration or a standard EGFR inhibitor, PD153035 (10 μM) for 48 h. Cells were then lysed to isolate the total protein and subjected to SDS‐PAGE, transferred onto a poly (vinylidene difluoride) membrane, probing with primary antibodies (Table ST2) against apoptotic markers—BAX, BCL‐2, cytochrome‐C, and β‐actin followed by incubation with horseradish peroxidase‐conjugated secondary antibodies (CST, Waltham, MA, USA) as described previously.[6] Visualization was performed using G: Box (Syngene, Cambridge, UK).

[3] = test system: CD24^+‐breast cancer cells; assay: Mammosphere forming efficiency, sorted cells; format: cell-based, human; settings: doxorubicin 0.01 μM + 1e
Description: (§2) TNBC cell lines—MDA‐MB‐231, MDA‐MB‐468, or the sorted CD24^+‐breast cancer cells, and CD24^−/CD44^+‐breast CSC populations from MDA‐MB‐231 [6] were seeded at a 1 × 10^4 cells/well density in mammosphere‐specific medium—Medium‐171 (Gibco, USA), supplemented with mammary epithelial growth supplement (MEGS) and B‐27 (Life technologies, Auckland, New Zealand) as described previously.[6], [26] TNBC cells or the sorted breast cancer cells and CSCs were plated onto poly‐hydroxyethyl methacrylate (Sigma‐Aldrich, USA) coated 24‐well plates and subjected to treatment with DMSO (Vehicle), Doxorubicin (0.01 and 0.1 μM) alone or with the potential EGFR inhibitors (compounds—1c, 1e, 1g, 1h, 1j, and 1k (5 μM) based on their low IC50 values) or a commercial EGFR inhibitor, PD153035 (10 μM). The suspension cultures were incubated under 5% CO2, at 37°C in a humidified atmosphere for 7 days. At the end of the treatment period, the images of mammospheres were taken at 10× magnification using a microscope (Olympus IX71, Tokyo, Japan). The size of spheres was measured using ImageJ software (NIH, Bethesda, MD, USA).

[4] = test system: CD24^−/CD44^+‐breast CSCs; assay: Mammosphere forming efficiency, sorted cells; format: cell-based, human; settings: doxorubicin 0.01 μM + 1e
Description: as §2

[5] = test system: Bax and Cytochrome‐C in MDA‐MB‐231 cells; assay: Gene expression of apoptotic genes, semi-quantitative RT-PCR; format: cell-based, human; settings: MDA-MB-231, doxorubicin + compound 5 μM, 24 h
Description: Briefly, the cells were incubated at 37°C with serum starvation followed by culturing as described above. […] Briefly, the template RNA (1 μg) was utilized for cDNA synthesis using a First‐strand cDNA synthesis kit (Thermo Scientific, USA) according to the manufacturer's protocol. Thermal cycler (Mastercycler® nexus, Eppendorf) was used for the amplification of the expression of apoptotic genes—Bax, Bcl2, Cytochrome‐C, and target gene EGFR with the help of Dream Taq DNA Polymerase PCR Master Mix (Thermo Scientific, USA) along with human gene‐specific forward and reverse primer sequences of the apoptotic genes and EGFR (Table ST1). The expression of the target genes was normalized to the Eukaryotic 18S rRNA.

[6] = test system: CD24^−/CD44^+‐breast CSCs xenotransplanted tumors; assay: Preclinical orthotopic xenograft murine tumor model (tumor size, weight, H&E histology); format: in vivo, C57BL/6 mice
Description: as §1
Euthanization of mice was performed on day 14 post‐transplantation and tumor tissues were collected for histological and immunohistochemical analysis. Histological differences in tumor tissues were evaluated using hematoxylin and eosin staining (H&E).[28], [30]

How did the “colocalization of GFP/p‐EGFR” value ([1]; with doxorubicin low dose, CSC xenograft tumor tissue) turn out when `c1cncc(C(c2c[nH]c3ccccc23)c2c[nH]c3ccccc23)c1` [1e] was run?
Its value is “decreased significantly”.

What about the “activation of apoptotic signaling mediators (GFP/p‐JNK, GFP/p‐p38 colocalization)” value ([1]; with low dose doxorubicin, comparable with high dose doxorubicin alone) of the same compound?
The value was “increased activation”.

What about the “colocalization of GFP and CD44 (Pearson's correlation coefficient)” value ([1]; with low dose of doxorubicin, CSC xenograft tumor tissue) of the same compound?
The value was “comparable to the high dose of doxorubicin treated group”.

And the BAX protein level ([2]; 48 h)?
Its BAX protein level is “elevation”.

What about the BAX/BCL2 ratio ([2]; 48 h) of the same compound?
Its BAX/BCL2 ratio is “elevation”.

What about the BCL2 levels ([2]; 48 h) of the same compound?
Its BCL2 levels is “marked decrease”.

What about the “doxorubicin‐induced expression of Cyt‐C” value ([2]; vs the other compounds) of the same compound?
Its value is “comparatively higher levels”.

What about the mammosphere forming efficiency [3] of the same compound?
The mammosphere forming efficiency was “significant decrease”.

What about the mammosphere forming efficiency [4] of the same compound?
The mammosphere forming efficiency was “significant decrease”.

And the “expression of pro‐apoptotic genes Bax and Cytochrome‐C” value [5]?
Its value is “marked increase”.

What about the “tumorigenicity (H&E histology)” value ([6]; 50 mg/kg + low dose doxorubicin 2.5 mg/kg, CSC xenograft) of the same compound?
The value was “significant decrease”.

What about the “histopathological finding in tumor tissue” value ([6]; 50 mg/kg + low dose doxorubicin 2.5 mg/kg, CSC xenograft, day 14) of the same compound?
The value was “no tumor mass”.

And the tumor size ([6]; intratumoral, 50 mg/kg + doxorubicin low dose 2.5 mg/kg vs low dose doxorubicin alone, CD24^−/CD44^+ CSC xenograft)?
The tumor size was “significantly decreased”.
